According to patent US20070219209A1, “Piperazine Derivatives Of Alkyl Oxindoles” (GYÓGYSZERGYÁR RT., priority 2004, published 2007):
Structures can show the parent of a compound that is named as a salt.

Experiments:
5-HT7 receptor = target: T1, 5-HT7 receptor (Homo sapiens, UniProt P34969); assay: 5-HT7 receptor binding experiment; conditions: human cloned receptors; ligand 3H-LSD 1.0 nM; non-specific clozapine 25 μM
T1 construct: expressed in transfected cells
Procedure: For the determination of 5-HT7 receptor binding human cloned receptors were used. The α1 receptor binding was determined from isolated frontal cortex preparation of male Wistar rats weighing 120-200 g. The 5-HT uptake measurements were performed on samples from isolated cortex of male rats. The protein contents of membrane preparations were determined by the method of Lowry (1951).
In the course of 5-HT7 and α1 receptor binding studies the ligands were ^3H-lizergic acid diethyl amide (LSD) (1.0 nM) and ^3H-prazosine (0.3 nM). Clozapine (25 μM) and prazosine (1 μM) were used for the measurement of non-specific bindings. The α1 binding studies were performed according to the methods of Reader and Greengrass (Reader, T. A., Briere, R., Grondin, L.: J. Neural Transm. 68, p. 79 (1987); Greengrass, P., Brenner, R.: Eur. J. Pharmacol. 55, p. 323 (1979)). In the serotonin uptake inhibition studies the ligand was tritiated serotonin, the non-specific ligand was fluoxetine (100 μM). On the test results Ki values were calculated.

T1 sequence (P34969 whole entry): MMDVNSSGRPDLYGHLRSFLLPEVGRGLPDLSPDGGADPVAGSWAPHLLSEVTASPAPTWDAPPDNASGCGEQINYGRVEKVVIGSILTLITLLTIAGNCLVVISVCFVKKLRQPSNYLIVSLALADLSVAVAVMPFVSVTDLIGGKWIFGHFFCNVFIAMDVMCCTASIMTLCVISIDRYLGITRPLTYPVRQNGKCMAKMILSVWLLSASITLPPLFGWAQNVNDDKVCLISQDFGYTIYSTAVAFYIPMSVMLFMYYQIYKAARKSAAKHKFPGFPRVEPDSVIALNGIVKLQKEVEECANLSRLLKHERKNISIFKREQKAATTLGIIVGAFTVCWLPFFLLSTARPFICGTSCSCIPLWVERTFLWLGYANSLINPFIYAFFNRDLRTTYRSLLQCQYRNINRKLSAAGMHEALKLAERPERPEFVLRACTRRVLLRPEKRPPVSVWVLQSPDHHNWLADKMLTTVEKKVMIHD

Row | SMILES | melting point | Ki (5-HT7 receptor)
1 | O=C1Nc2ccc(F)cc2C1CCCCN1CCN(c2ccccc2)CC1 (stereo not drawn) | 140 to 144 °C | 
2 | O=C1Nc2ccc(F)cc2C1CCCCN1CCN(c2ccc(Cl)cc2)CC1 (stereo not drawn) (as salt: hydrochloride) [Example 7, 3-{4-[4-(4-Chlorophenyl)-piperazin-1-yl]-butyl}-5-fluoro-1,3-dihydro-2H-indol-2-one monohydrochloride] | 193 to 196 °C | 
3 | O=C1Nc2ccc(F)cc2C1CCCCN1CCN(c2cccc(Cl)c2)CC1 (stereo not drawn) [Example 6, 3-{4-[4-(3-Chlorophenyl)-piperazin-1-yl]-butyl}-5-fluoro-1,3-dihydro-2H-indol-2-one monohydrochloride] |  | < 100 µM
4 | Cc1ccc2c(c1)C(CCCCN1CCN(c3ccc(Cl)cc3)CC1)C(=O)N2 (stereo not drawn) [Example 10, 3-{4-[4-(4-Chlorophenyl)-piperazin-1-yl]-butyl}-5-methyl-1,3-dihydro-2H-indol-2-one] | 159 to 161 °C | < 100 µM
5 | O=C1Nc2ccccc2C1CCCCN1CCN(c2ccc(F)cc2)CC1 (stereo not drawn) [Example 11, 3-{4-[4-(4-Fluorophenyl)-piperazin-1-yl]-butyl}-1,3-dihydro-2H-indol-2-one] | 113 to 115 °C | < 100 µM
6 | O=C1Nc2ccccc2C1CCCCN1CCN(c2ccc(Cl)c(Cl)c2)CC1 (stereo not drawn) [Example 12, 3-{4-[4-(3,4-Dichlorophenyl)-piperazin-1-yl]-butyl}-1,3-dihydro-2H-indol-2-one] | 112 to 114 °C | < 100 µM
7 | O=C1Nc2ccccc2C1CCCCN1CCN(c2ccc(F)c(Cl)c2)CC1 (stereo not drawn) [Example 14, 3-{4-[4-(3-Chloro-4-fluorophenyl)-piperazin-1-yl]-butyl}-1,3-dihydro-2H-indol-2-one monohydrochloride] |  | < 100 µM
8 | O=C1Nc2ccccc2C1CCCCN1CCN(c2ccc(Cl)c(C(F)(F)F)c2)CC1 (stereo not drawn) [Example 15, 3-{4-[4-(4-Chloro-3-trifluoromethylphenyl)-piperazin-1-yl]-butyl}-1,3-dihydro-2H-indol-2-one monohydrochloride] |  | < 100 µM
9 | O=C1Nc2ccc(F)cc2C1CCCCN1CCN(c2ccc(F)cc2)CC1 (stereo not drawn) [Example 16, 5-Fluoro-3-{4-[4-(4-fluorophenyl)-piperazin-1-yl]-butyl}-1,3-dihydro-2H-indol-2-one] | 135 to 137 °C | < 100 µM
10 | O=C1Nc2ccccc2C1CCCCN1CCN(c2cccc(Cl)c2)CC1 (stereo not drawn) [Example 18, 3-{4-[4-(3-Chlorophenyl)-piperazin-1-yl]-butyl}-1,3-dihydro-2H-indol-2-one] | 112 to 114 °C | < 100 µM
11 | O=C1Nc2ccc(F)cc2C1CCCCN1CCN(c2ccc(Cl)c(Cl)c2)CC1 (stereo not drawn) [Example 23, 3-{4-[4-(3,4-dichlorophenyl)-piperazine-1-yl]-butyl}-5-fluoro-1,3-dihydro-2H-indol-2-one] | 118 to 120 °C | 

Second part, the compound after the results:

Row | melting point | Ki (5-HT7 receptor) | SMILES
12 | 180 to 184 °C |  | O=C1Nc2ccc(F)cc2C1CCCCN1CCN(c2cccc(Cl)c2)CC1 (stereo not drawn) (as salt: hydrochloride) [Example 6, 3-{4-[4-(3-Chlorophenyl)-piperazin-1-yl]-butyl}-5-fluoro-1,3-dihydro-2H-indol-2-one monohydrochloride]
13 | 149 to 151 °C |  | O=C1Nc2cc(F)ccc2C1CCCCN1CCN(c2ccc(Cl)cc2)CC1 (stereo not drawn) (as salt: hydrochloride) [Example 8, 3-{4-[4-(4-Chlorophenyl)-piperazin-1-yl]-butyl}-6-fluoro-1,3-dihydro-2H-indol-2-one monohydrochloride]
14 | 180 to 183 °C |  | O=C1Nc2ccccc2C1CCCCN1CCN(c2ccc(F)c(Cl)c2)CC1 (stereo not drawn) (as salt: hydrochloride) [Example 14, 3-{4-[4-(3-Chloro-4-fluorophenyl)-piperazin-1-yl]-butyl}-1,3-dihydro-2H-indol-2-one monohydrochloride]
15 | 123 to 125 °C |  | O=C1Nc2ccccc2C1CCCCN1CCN(c2ccc(Cl)c(C(F)(F)F)c2)CC1 (stereo not drawn) (as salt: hydrochloride) [Example 15, 3-{4-[4-(4-Chloro-3-trifluoromethylphenyl)-piperazin-1-yl]-butyl}-1,3-dihydro-2H-indol-2-one monohydrochloride]
16 |  | < 100 µM | O=C1Nc2ccc(F)cc2C1CCCCN1CCN(c2ccc(Cl)cc2)CC1 (stereo not drawn) [Example 7, 3-{4-[4-(4-Chlorophenyl)-piperazin-1-yl]-butyl}-5-fluoro-1,3-dihydro-2H-indol-2-one monohydrochloride]
17 |  | < 100 µM | O=C1Nc2cc(F)ccc2C1CCCCN1CCN(c2ccc(Cl)cc2)CC1 (stereo not drawn) [Example 8, 3-{4-[4-(4-Chlorophenyl)-piperazin-1-yl]-butyl}-6-fluoro-1,3-dihydro-2H-indol-2-one monohydrochloride]
18 | 122 to 124 °C | < 100 µM | Cc1ccc2c(c1)C(CCCCN1CCN(c3cccc(Cl)c3)CC1)C(=O)N2 (stereo not drawn) [Example 9, 3-{4-[4-(3-Chlorophenyl)-piperazin-1-yl]-butyl}-5-methyl-1,3-dihydro-2H-indol-2-one]
19 | 136 to 137 °C | < 100 µM | O=C1Nc2ccccc2C1CCCCN1CCN(c2ccc(Cl)cc2)CC1 (stereo not drawn) [Example 17, 3-{4-[4-(4-Chlorophenyl)-piperazin-1-yl]-butyl}-1,3-dihydro-2H-indol-2-one]
20 | 110 to 113 °C |  | O=C1Nc2ccccc2C1CCCCN1CCN(c2ccccc2)CC1 (stereo not drawn) [Example 24, 3-[4-(4-phenyl-piperazin-1-yl)-butyl]-1,3-dihydro-2H-indol-2-one]
